In US9725702B2, “Laccase from ganoderma lucidum capable of enhancing enzymatic degradation of lignocellulolytic biomass” (DANMARKS TEKNISKE UNIVERSITET, priority 2012, dated 2017):
Read-outs that look alike come from different tables or passages of the source. Blank lines part the entries; values can stand above or below the molecule they belong to.

What was measured:
[1] = tested on: LacGL1 laccase from Ganoderma lucidum, expressed in Pichia pastoris; format: biochemical
Method: (§1) The laccase activity was measured based on a modified method of Ters et al. (2009). The laccase activity was defined as the amount of the enzyme required to oxidise 1 μmol of ABTS per minute at 25° C., and pH 4.7. The assay mixture contained: 0.1 M citrate-phosphate buffer (255 μL, pH 4.7), ABTS (5 μL, 4 mM (ABTS stock solution)), and pre-diluted laccase (5 μL) that ensured the linear range of Michaelis-Menten kinetics. The oxidation of ABTS was monitored at 420 nm (ε420=36800 M^−1cm^−1) for 2 min. in an Infinite 200 microtiter plate reader (Tecan, Salzburg, Austria). Laccase activity assays on the substrates: hydroquinone (248 nm), 2.6-dimethoxyphenol (470 nm), and guaiacol (436 nm) was done similarly with the substrate concentration as described in Table 2 using the following extinction coefficient values: 17.542 M^−1cm^−1, 35.645 M^−1cm^−1, and 6.400 M^−1cm^−1, respectively (Minussi et al. 2007). The data collection was monitored by the program Tecan i-control version 1.5.14.0 (Tecan, Salzburg, Austria).

[2] = tested on: fungal laccase; format: biochemical, Ganoderma lucidum
Method: as §1

[3] = tested on: laccase from the crude extract of G. lucidum (Lac_GLCE); format: biochemical, Ganoderma lucidum
Method: as §1

[4] = Laccase-cellulase catalyzed hydrolysis of pretreated biomass, glucose release; format: biochemical; settings: with cellulase 1 or 2, pH 5.1, 50° C., 30 hour, p<0.05
Method: (§2) FIG. 15. A graphical comparison of glucose released over time during hydrolysis of pre-treated wheaty straw at pH 5.1 and 50° C. by each of commercial enzyme preparations Cellulase 1 (CC2) [A]; or Cellulase 2 [B], either alone, or in combination with a laccase enzyme; the tested laccases being respectively LacGL1 and GLlac1 (LacJooSS; Q9HG17) derived from G. lucidum; and laccases derived from Agaricus bisporus (Sigma 40452), Pleurotus ostreatus (Sigma 75117) and, Trametes versicolor (Sigma 51639).
(§3) The commercial fungal laccases were purchased as lyophilized protein samples from Sigma Aldrich. A solution of each of the above 5 laccases was prepared in a citric buffer containing 20% of glycerol (pH 5.1, 100 mM).
(§4) Two different commercially available cellulase enzyme preparations used in the comparative study were “Cellulase 1” and “Cellulase 2”, which were tested in combination with each of the laccases listed above.
(§5) The three different types of pretreated biomass used in the comparative study were sugarcane bagasse, barley straw and wheat straw. The source and pre-treatment of the sugarcane bagasse by steam explosion was as set out in Example 9. […] The composition of the dry and the pretreated biomass were determined according to the US National Renewable Energy Laboratory (NREL) procedures (Sluiter et al, 2010).
(§6) The laccase-cellulase catalyzed hydrolysis of the pretreated biomass samples to release glucose was performed as follows: Hydrolysis of 5% (w/v) samples of pretreated sugarcane bagasse, barley straw, and wheat straw biomass were assayed using an Enzyme/Substrate (E/S) ratio of 0.064% w/w for laccases and of 0.4% w/w for each commercial cellulase preparation in each hydrolysis reaction. The E/S dosage was based on the total protein concentration used, as determined using Pierce BCA (BiCinchoninic Acid) protein assay kit microplate procedure according to manufacturer's instruction (Thermo Fisher Scientific, Rockford, US). […]
(§7) Laccase and cellulase-mediated hydrolysis of the 3 biomass forms, measured as glucose release, are shown graphically in FIGS. 13, 14 and 15. […]

[5] = cited from earlier work; for Km: ABTS, expressed in Pichia pastoris (Sun et al., 2012)
[6] = Laccase-cellulase catalyzed hydrolysis of pretreated biomass, glucose release; format: biochemical; settings: with cellulase 1 or 2, pH 5.1, 50° C., 30 hour, p<0.05; remark: listed apart in the source
Method: as §2, with “13.” for “15.”, “STEX-SCB” for “pre-treated wheaty straw”
as §3, §4, §5, §6, §7

[7] = as above; format: biochemical; settings: with cellulase 1 or 2, pH 5.1, 50° C., 30 hour, p<0.05; remark: listed apart in the source
Method: as §2, with “14.” for “15.”, “barley” for “wheaty”
as §3, §4, §5, §6, §7

[8] = Michaelis constant (Km) of laccase for ABTS, Hanes-Wolf plot; format: biochemical; settings: substrate ABTS

Molecule: O[C@H](CS)[C@H](O)CS (racemic) [Dithiothreitol]
- Inhibition ([1]; 0.5 mM): 100%
- Inhibition ([2]; 0.5 mM): 100%
- Inhibition ([3]; 0.5 mM): 100%

Molecule: O=C(O)CN(CCN(CC(=O)O)CC(=O)O)CC(=O)O [EDTA]
- Inhibition [1]: 16%
- Inhibition [2]: 16-30%
- Inhibition [3]: 30%

- Inhibition ([1]; 0.0001 mM): 8%
- Inhibition ([1]; 0.0005 mM): 13%
- Inhibition ([1]; 0.001 mM): 19%
- Inhibition ([1]; 0.01 mM): 22%
- Inhibition ([1]; 0.1 mM): 46%
- Inhibition ([2]; 0.1 mM): 46-56%
- Inhibition ([3]; 0.0001 mM): 23%
- Inhibition ([3]; 0.0005 mM): 24%
- Inhibition ([3]; 0.001 mM): 28%
- Inhibition ([3]; 0.01 mM): 38%
- Inhibition ([3]; 0.1 mM): 56%
Molecule: [F-].[Na+] [Sodium fluoride]

- glucose release compared to the other tested laccases [4]: significantly enhanced
- glucose release compared to the other tested laccases [6]: significantly enhanced
- glucose release compared to the other tested laccases [7]: significantly enhanced
B1: GLlac1: Laccase from Ganoderma lucidum strain 7071-9 (UniProt Q9HG17, SEQ ID NO: 29), expressed in Pichia pastoris (protein, listed as Ganoderma lucidum)
chain: MVKFQSLLSCVTLLFAASAHAGIGPKADLTISNANIAPDGYTRAAVVVNGVFPGPLITGNKGDRFQLNVIDQLTNHTMLKTTSIHWHGFFQKGTNWADGPAFINQCPIASGHSFLYDFQVPDQAGTFWYHSHLSTQYCDGLRGPFVVYDPKDPLKGLYDVDNDSTVITLSDWYHVAARLGPSFPLGSDSTLINGLGRSTTNATAGLAVINVTQGKRYRFRLVSLSCDPNYTFSIDGHDMSVIEADGIATQPVTANAIQIFSAQRYSFVLTANQTIGNYWIRANPSFGNIGFTNGINSAILRYSGADPIEPTTAQQTTQNLLNEVDLHPFVAKQTPGRATQGGTDVAINMVFNFNGSNFFINNASFTPPTVPVLLQILSGAQAAQDLLPSGSVYTLPINKSIELTFPATVNAPGAPHPFHLHGHSFAVVRSAGSTEYNYNNPVWRDVVSTGTPAAGDNVTIRFQTDNPGPWFLHCHIDFHLEAGFAVVFAEDTADTSLANHVPQAWSDLCPTYDALSADDH
- Km [5]: 995 µM
- Km ([5]; listed as GILCC1): 996 µM
- pH optimum ([5]; literature): 2.6

B2: Ganoderma lucidum CBS229.93 laccase: Native laccase secreted by Ganoderma lucidum CBS229.93, about 62.5 kDa (protein, listed as Ganoderma lucidum)
chain: MAKFQSLLSCVTLLFAASAYAGIGPKTDLTISNADVAPDGYTRAAVVVNGVFPAPLITGNKGDRFQLNVIDQMTNHTMLKSTSIHWHGFFQKGTNWADGPAFINQCPISSGHSFLYDFQVPDQAGTFWYHSHLSTQYCDGLRGPFVVYDPKDPLKKLYDIDDDSTVITLTDWYHVAARLGPRFPLGSDSTLINGLGRSTTNVTADLAVINVTQGKRYRFRLVSLSCDPNYTFSIDDHNMTVIEADGIETQPVTVNAIQIFSAQRYSFVLTANQTIDNYWIRANPNFGNVGFTDGINSAILRYAGADPVEPTTSQQTTQNLLNEVDLHPFVPKRTPGQPTQGGVDTAINMVFNFNGSNFFINNASFVPPTVPVLLQILSGAQAAQDLLPSGSVYTLPVNKSIELTFPATANAPGAPHPFHLHGHAFAVVRSAGSTVYNYDNPVWRDVVSTGTPAAGDNVTIRFQTDNPGPWFLHCHIDFHLEAGFAVVFAEDPTDTSLANPVPKAWSDLCPTYDALSVDDQ
- Km ([8]; pH 5): 107 µM
- Km ([8]; laccase expressed in Ganoderma lucidum CBS229.93 (native)): 107 µM
